The values that follow come from patent publication US8895037B2, “Administation of ellagic acid for the treatment of canities” (L'Oreal, priority 2006, dated 2014).

In experiment [1] the test system is normal human melanocytes (NHMs). As to the kind of experiment: Accelerated senescence induced in vitro by a chronic H2O2 stress, viability by Alamar Blue. The class given is cell-based. To be noted: for % relative to the control / average fluorescence: Alamar Blue on D7. The protocol: 1-C-1. Protocol for accelerated senescence induced in vitro by a chronic H2O2 stress:
(According to O. Toussaint, E. E. Medrano and T. von Zglinicki, Experimental Gerontology 2000, 35, 927-945).
The normal human melanocytes (NHMs) were inoculated at D0 at the density of 0.8×10^4 cells/cm^2. After adhesion of the cells (3 h) the active agent studied was added to the culture medium. H2O2 (250 μM) was added to the culture medium over 1 hour, at D1, D2 and D3. In addition, the culture medium was renewed every two days without addition of stress. On D7, the number of viable cells was measured using Alamar Blue (UP669413 UPTIMA, Interchim) according to the instructions of the supplier.
For orientation: The colour change of resazurin is a common sign of viable cells or microbes.

The test system is the same in experiment [2]. As to the kind of experiment: Reactive oxygen species (ROS) generated by an H2O2 stress in cultured normal human melanocytes. To be noted: NHM pretreated 12 h/18 h, 250 μM H2O2, fluorescence after 15 min; FIG. 1. The class given is cell-based. The protocol:
1-A-1. Protocol for measuring the reactive oxygen species (ROS) generated by an H2O2 stress in cultured normal human melanocytes (NHMs) The normal human melanocytes (NHMs) were inoculated at D0 at the density of 4×10^4 cells/cm^2. At D1, the culture medium was replaced with the 10 μM solution of 6-carboxy-2',7'-dichlorodihydrofluorescein diacetate, di[acetoxymethyl ester] in PBS (H2DCFDA, C2938, Molecular Probes). After 20 min the H2DCFDA solution was replaced with the culture medium. The NHMs were left for 30 min before adding the H2O2 solution (250 μM). The fluorescence was measured after 15 min in a fluoroscan (excitation: 485 nm, emission: 538 nm). The compounds studied were used depending on their properties (concentration, preincubation time). N-Acetylcysteine ([…], Sigma) was used as a reference molecule. The melanocytes were pretreated, 12 h/18 h at 37° C., with the compound studied in the culture medium, before being brought into contact for 20 minutes with H2DCFDA (10 μM in PBS). […] The fluorescence was measured after 15 min in a fluoroscan (excitation: 485 nm, emission: 538 nm). The results represent the crude fluorescence data, from which the autofluorescence values of “blank” cells, expressed in fluorescence units (fu), obtained during a representative experiment, have been deducted.

Where [3] appears, read: (no treatment, NAC, EA), chronic H2O2 250 μM at D1, D2, D3.

Consider `CC(=O)N[C@@H](CS)C(=O)O` [NAC, N-Acetylcysteine, reference compound], for which, in experiment [1] ((Control, NAC, EA)), the “% relative to the control” value worked out at 106% and the average fluorescence is recorded as 8056.00. Also, in experiment [1] (setting [3]), the “% relative to the control” value is on record as 38% and the average fluorescence was 2869.00.

For `O=c1oc2c(O)c(O)cc3c(=O)oc4c(O)c(O)cc1c4c23` [ellagic acid, 2,3,7,8-tetrahydroxy(1)benzopyrano(5,4,3-CDE)(1)benzopyran-5,10-dione], the “% relative to the control” value in experiment [1] ((Control, NAC, EA)) turned out to be 97%; in experiment [1] (setting [3]), 39%. The average fluorescence turned out to be 7343.67 in experiment [1] ((Control, NAC, EA)) and 2934.00 in experiment [1] (setting [3]). Further, the “viability after accelerated senescence induced by chronic H2O2 stress” value in experiment [1] (NHM, H2O2 250 μM at D1, D2, D3, read on D7, FIG. 3) is on record as “significant increase in viability”. Besides, the “reactive oxygen species induced by H2O2 (fluorescence, H2DCFDA)” value in experiment [2] is “decrease of the reactive oxygen species”.
